Results on ten molecules are retold here after US20250275959A1, “COMPOUNDS AND METHODS OF THEIR USE” (LEXICON PHARMACEUTICALS, INC., priority 2024, published 2025).

Assay [1] addresses T1, hACSL5 (Homo sapiens (Human), UniProt Q9ULC5). Description: Human ACSL5 coupled enzyme Amplex Red assay. The assay is classed as biochemical. To be noted: read-out: hACSL5 IC50. Put shortly: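 Amplex Red coupled readout: 1 mM ATP, 25 μM oleate and 30 μM CoA were added to compound-preincubated enzyme (20 nM, residues 33-683, insect-cell expressed, His-tagged) with coupling peroxidase and acyl-CoA oxidase at pH 7.6. Signal was read at 535/590 nm after 10 minutes at 25° C., and Hill fits yielded half-maximal and maximal inhibition.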
Target sequence in this assay (Q9ULC5 33-683): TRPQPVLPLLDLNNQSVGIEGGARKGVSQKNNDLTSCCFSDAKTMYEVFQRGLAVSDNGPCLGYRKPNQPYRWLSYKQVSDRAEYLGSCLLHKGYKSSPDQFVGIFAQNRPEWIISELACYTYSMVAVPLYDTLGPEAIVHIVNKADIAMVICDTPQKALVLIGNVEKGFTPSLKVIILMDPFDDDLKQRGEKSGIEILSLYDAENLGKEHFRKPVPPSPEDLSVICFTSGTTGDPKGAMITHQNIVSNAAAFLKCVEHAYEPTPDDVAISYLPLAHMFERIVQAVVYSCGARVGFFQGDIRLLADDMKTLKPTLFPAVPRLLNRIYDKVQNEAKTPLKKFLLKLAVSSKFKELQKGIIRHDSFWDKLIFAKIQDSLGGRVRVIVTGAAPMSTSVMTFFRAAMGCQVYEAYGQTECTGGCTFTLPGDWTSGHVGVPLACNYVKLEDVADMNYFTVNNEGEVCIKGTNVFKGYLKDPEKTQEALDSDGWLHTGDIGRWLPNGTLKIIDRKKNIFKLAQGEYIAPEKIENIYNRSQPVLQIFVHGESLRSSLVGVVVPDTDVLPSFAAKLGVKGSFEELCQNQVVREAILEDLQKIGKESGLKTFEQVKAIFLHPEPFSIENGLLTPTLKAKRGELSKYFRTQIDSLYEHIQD

Assay [2] addresses T1, hACSL5. Description: Cell-based assay (CBA) with B12FA in hACSL5-transfected Expi293F / FlpIn TRex293 cells. Particulars: hACSL5-expressing cells. Put shortly:
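hACSL5-expressing Expi293F or tetracycline-induced FlpIn TRex293 cells, serum- and glucose-starved 1 h, then treated 3 h with serially diluted compound plus 20 µM B12FA. After fixation, 630/520 nm emission ratio (ex 485 nm) gave % inhibition versus no-inhibitor and 10 µM compound/non-induced controls; IC50 by Hill fit.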
Target sequence in this assay (Q9ULC5 whole entry, the tested form may be a part): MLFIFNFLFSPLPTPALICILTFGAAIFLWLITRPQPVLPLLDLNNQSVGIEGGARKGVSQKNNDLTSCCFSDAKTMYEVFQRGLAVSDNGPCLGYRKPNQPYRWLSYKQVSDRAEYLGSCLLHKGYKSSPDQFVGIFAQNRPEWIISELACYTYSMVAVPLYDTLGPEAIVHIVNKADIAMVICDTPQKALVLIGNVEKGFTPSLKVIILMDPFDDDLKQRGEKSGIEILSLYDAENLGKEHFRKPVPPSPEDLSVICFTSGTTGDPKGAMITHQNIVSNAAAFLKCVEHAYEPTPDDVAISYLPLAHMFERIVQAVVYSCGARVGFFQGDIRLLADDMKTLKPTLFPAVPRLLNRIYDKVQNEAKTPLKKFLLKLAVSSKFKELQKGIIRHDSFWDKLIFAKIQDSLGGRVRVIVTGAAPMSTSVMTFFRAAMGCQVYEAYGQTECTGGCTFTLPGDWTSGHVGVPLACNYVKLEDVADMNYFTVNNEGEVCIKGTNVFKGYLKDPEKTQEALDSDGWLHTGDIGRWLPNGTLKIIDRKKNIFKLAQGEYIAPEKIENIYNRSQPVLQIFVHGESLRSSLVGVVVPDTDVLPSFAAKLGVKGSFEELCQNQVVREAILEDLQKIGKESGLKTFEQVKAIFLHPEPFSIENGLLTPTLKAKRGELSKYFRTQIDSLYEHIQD

The term IC50 denotes the concentration that inhibits the measured activity by half.

`CC[C@@H](Oc1ccc(C(=O)NS(=O)(=O)c2ccc(OCCN(C)C)cc2)c(F)c1F)c1ccc(OC2CC(OC)C2)cn1` (stereo partly drawn) [N-((4-(2-(dimethylamino)ethoxy)phenyl)sulfonyl)-2,3-difluoro-4-((R)-1-(5-((1R,3R)-3-methoxycyclobutoxy)pyridin-2-yl)propoxy)benzamide]: the IC50 on hACSL5 [1] is under 0.1 µM; on hACSL5 [2] it was 0.1 to 0.5 µM.

For the molecule `CC[C@@H](Oc1ccc(C(=O)NS(=O)(=O)N2CCN(C3CCCC3)CC2)c(F)c1F)c1ccc(Oc2ccccn2)cn1` [(R)-N-((4-cyclopentylpiperazin-1-yl)sulfonyl)-2,3-difluoro-4-(1-(5-(pyridin-2-yloxy)pyridin-2-yl)propoxy)benzamide], the IC50 on hACSL5 [1] is under 0.1 µM; at hACSL5 [2] it was 0.1 to 0.5 µM.

On to `CC[C@@H](Oc1ccc(C(=O)NS(=O)(=O)N2CC3CCC(C2)N3C)c(F)c1F)c1ccc(OCC2CC2)cn1` [4-((R)-1-(5-(cyclopropylmethoxy)pyridin-2-yl)propoxy)-2,3-difluoro-N-((8-methyl-3,8-diazabicyclo[3.2.1]octan-3-yl)sulfonyl)benzamide], for which the IC50 on hACSL5 [1] and at hACSL5 [2] was under 0.1 µM in each case.

For the molecule `CC[C@@H](Oc1ccc(C(=O)NS(=O)(=O)N2CCN(CC)CC2)c(F)c1F)c1ccc(Oc2ccccn2)cn1` [(R)-N-((4-ethylpiperazin-1-yl)sulfonyl)-2,3-difluoro-4-(1-(5-(pyridin-2-yloxy)pyridin-2-yl)propoxy)benzamide], the IC50 at hACSL5 [1] and on hACSL5 [2] was under 0.1 µM throughout.

Consider `CC[C@@H](Oc1ccc(C(=O)NS(=O)(=O)c2ccc(OCCN3CCOCC3)cc2)c(F)c1F)c1ccc(OCC2CC2)cn1` [(R)-4-(1-(5-(cyclopropylmethoxy)pyridin-2-yl)propoxy)-2,3-difluoro-N-((4-(2-morpholinoethoxy)phenyl)sulfonyl)benzamide], for which the IC50 is under 0.1 µM at hACSL5 [1] and over 0.5 µM on hACSL5 [2].

Turning to `CC[C@@H](Oc1ccc(C(=O)NS(=O)(=O)c2ccc(OCCN(C)C)cc2)cc1C(F)(F)F)c1ccc(OC2CC(OC)C2)cn1` (stereo partly drawn) [N-((4-(2-(dimethylamino)ethoxy)phenyl)sulfonyl)-4-((R)-1-(5-((1R,3R)-3-methoxycyclobutoxy)pyridin-2-yl)propoxy)-3-(trifluoromethyl)benzamide], the IC50 on hACSL5 [1] and against hACSL5 [2] was 0.1 to 0.5 µM in each case.

Consider `CC[C@@H](Oc1ccc(C(=O)NS(=O)(=O)c2ccc(OC3CCN(CC(C)(C)O)CC3)cc2)c(F)c1F)c1ccc(OCC2CC2)cn1` [(R)-4-(1-(5-(cyclopropylmethoxy)pyridin-2-yl)propoxy)-2,3-difluoro-N-((4-((1-(2-hydroxy-2-methylpropyl)piperidin-4-yl)oxy)phenyl)sulfonyl)benzamide], for which the IC50 is under 0.1 µM at hACSL5 [1] and 0.1 to 0.5 µM at hACSL5 [2].

Take `CC[C@@H](Oc1ccc(C(=O)NS(=O)(=O)N2CC3(CC(OCCN4CCCC4)C3)C2)c(F)c1F)c1ccc(OCC2CC2)cn1` [(R)-4-(1-(5-(cyclopropylmethoxy)pyridin-2-yl)propoxy)-2,3-difluoro-N-((6-(2-(pyrrolidin-1-yl)ethoxy)-2-azaspiro[3.3]heptan-2-yl)sulfonyl)benzamide]: the half-inhibitory concentration (IC50) was under 0.1 µM on hACSL5 [1] and over 0.5 µM on hACSL5 [2].

As for `CC[C@@H](Oc1ccc(C(=O)NS(=O)(=O)N2CCN(C)CC2)c(F)c1F)c1cc(OCC2CC2)ccn1` [(R)-4-(1-(4-(cyclopropylmethoxy)pyridin-2-yl)propoxy)-2,3-difluoro-N-((4-methylpiperazin-1-yl)sulfonyl)benzamide], the IC50 on hACSL5 [1] and against hACSL5 [2] was 0.1 to 0.5 µM in each case.

As to `CC[C@@H](Oc1ccc(C(=O)NS(=O)(=O)N2CCN(CC)CC2)cc1C(F)(F)F)c1ccc(OCC2CC2)cn1` [(R)-4-(1-(5-(cyclopropylmethoxy)pyridin-2-yl)propoxy)-N-((4-ethylpiperazin-1-yl)sulfonyl)-3-(trifluoromethyl)benzamide], the IC50 on hACSL5 [1] and on hACSL5 [2] was under 0.1 µM in each case.
